Literature values, collected in patent US20110200560A1, “NON-IONIC SELF-ASSEMBLING PEPTIDES AND USES THEREOF” (MASSACHUSETTS INSTITUTE OF TECHNOLOGY, priority 2009, published 2011).
Read-outs that look alike come from different tables or passages of the source.

Key:
[1] = test system: human umbilical vein endothelial cells (HIVEC)
[2] = test system: human umbilical vein endothelial cell (HUVEC); settings: from RADA 16-I scaffold, without additional soluble growth factors

In the case of “CSRARKQAASIKVAVSADR (Mammalian) [Laminin-1 peptide]”, the “degradation of Matrigel matrix by human umbilical vein endothelial cells” value [1] is given as “induced degradation of Matrigel matrix”.
For RYVVLPR (Mammalian), the cell adhesion (cell adhesion) is given as “promoted cell adhesion”.
In the case of KAFDITYVRLKF (Mammalian), the neurite outgrowth (neuronal cell) is listed as “promoted”, the neuronal cell adhesion (neuronal cell) is listed as “promoted” and the HUVEC adhesion (HUVEC) is listed as “promoted”. The HUVEC tube formation (HUVEC) was “promoted”.
In the case of AASIKVAVSADR (Mammalian), the “activity of neurite extension by PC12 cells” value (PC12 cells) is listed as “promoted activity of neurite extension”.
For “RAD/PRG: RADA16 peptide scaffold containing active motif with 2 units RGD motif (PRGDSGYRGDS) (SEQ ID NO: 77) (Mammalian)”, the “HUVEC unidirectional migration in response to functional peptide scaffolds” value [2] is given as “directionally migrated” and the “HUVEC unidirectional migration in response to functional peptide scaffolds” value ([2]; listed as PRG) is given as “induced cell migration”.
For PDSGR (Mammalian), the cell adhesion (cell adhesion) is given as “promoted cell adhesion”.
For “RAD/KLT: RADA16 peptide scaffold containing motif from vascular endothelial growth factor (KLTWQELYQLKYKGI) (SEQ ID NO: 78) (Mammalian)”, the “HUVEC unidirectional migration in response to functional peptide scaffolds” value [2] is given as “directionally migrated” and the “HUVEC unidirectional migration in response to functional peptide scaffolds” value ([2]; listed as KLT) is given as “induced cell migration”.
In the case of YIGSR (Mammalian), the cell adhesion (cell adhesion) is listed as “promoted cell adhesion”.
